From article PMC9399028 (European Journal of Nuclear Medicine and Molecular Imaging, 2022)
“Also recorded” adds a separate entry of the source. Where two headings read alike, the source gives them in different places.

Tests used:
MAO-A = target: T1, MAO-A (Rattus norvegicus, UniProt P21396); assay: In vivo PET imaging in rats with pargyline pre-treatment; settings: for peak brain activity: at 2 min
T1 construct: Male wild-type Sprague-Dawley rats; from tissue; host or cells: brain of living wild-type Sprague-Dawley rats
T1 sequence (P21396 1-526): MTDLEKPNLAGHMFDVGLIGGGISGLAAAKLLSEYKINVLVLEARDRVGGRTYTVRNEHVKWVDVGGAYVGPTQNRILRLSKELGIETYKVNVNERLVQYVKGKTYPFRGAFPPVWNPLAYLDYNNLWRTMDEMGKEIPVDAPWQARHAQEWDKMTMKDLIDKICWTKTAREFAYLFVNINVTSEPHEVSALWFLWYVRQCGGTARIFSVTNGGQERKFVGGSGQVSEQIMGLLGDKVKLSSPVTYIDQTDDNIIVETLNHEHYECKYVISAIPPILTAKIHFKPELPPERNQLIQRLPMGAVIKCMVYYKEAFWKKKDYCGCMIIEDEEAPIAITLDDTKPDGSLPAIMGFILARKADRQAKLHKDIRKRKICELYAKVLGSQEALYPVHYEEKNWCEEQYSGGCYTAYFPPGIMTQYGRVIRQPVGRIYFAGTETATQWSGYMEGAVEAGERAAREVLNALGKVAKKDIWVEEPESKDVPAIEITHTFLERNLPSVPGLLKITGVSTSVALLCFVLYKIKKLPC
Procedure: All procedures in this study followed the guidelines of the Institutional Animal Care and Use Committee of the University of the Sciences, Philadelphia, PA. A Siemens Inveon Multimodality Scanner was used for micro-PET/computed tomography (CT) imaging. Male wild-type Sprague-Dawley rats (128 ± 58 g) were anesthetized with 3% isoflurane with oxygen. Rats were administered [^18F]fluoroethyl-harmol or [^18F]flortaucipir via tail vein injection (7.4-14.8MBq [200–400 μCi] in a total volume of 200 μL). For blocking studies, rats were pre-treated with pargyline (Sigma-Aldrich, 50 mg/kg i.p.) 30 min prior to scans; control rats were pre-treated with 0.9% saline injection (Hospira, i.p.). A short high-resolution CT scan was first conducted for anatomical registration, followed by a 120-min dynamic PET scan. PET images were generated for each minute of the acquisition time. Uptake of the tracers was determined by visually drawing regions of interest based on the fused PET/CT images, and corresponding activity values were determined using Inveon Research Workplace software. All values are represented as % injected dose per gram (ID/g). A total of 6 rats were studied (3 control, 3 pre-treated) for [^18F]fluoroethyl-harmol and 8 rats for [^18F]flortaucipir (4 control, 4 pre-treated).

[1] = target: [^18F]flortaucipir binding to normal human brain (temporal cortex sections); assay: [^18F]flortaucipir autoradiography competition binding assay with MAO-A and MAO-B inhibitors; settings: for IC50: normal (tau NFT negative) human temporal cortex sections, 1.4 nM [^18F]flortaucipir, mild PBS wash, read-out: IC50, inhibition of [^18F]flortaucipir binding (autoradiography)
Procedure: After 60-min incubation at room temperature, PBS washes (4 × 2 min) were used to remove any unbound ligand. […] Signal intensity (counts/pixel) on each section was measured using Multi Gauge V3.0 Imaging software. Total binding was evaluated by nonlinear regression using GraphPad Prism v8 to determine IC50 values.

MAO-B microsomes [2] = target: T2, MAO-B microsomes (Homo sapiens, UniProt P27338); assay: Competition binding, displacement of safinamide from MAO-B microsomes (LC-MS); set-up: purchased Sigma M7441
T2 sequence (P27338 1-520): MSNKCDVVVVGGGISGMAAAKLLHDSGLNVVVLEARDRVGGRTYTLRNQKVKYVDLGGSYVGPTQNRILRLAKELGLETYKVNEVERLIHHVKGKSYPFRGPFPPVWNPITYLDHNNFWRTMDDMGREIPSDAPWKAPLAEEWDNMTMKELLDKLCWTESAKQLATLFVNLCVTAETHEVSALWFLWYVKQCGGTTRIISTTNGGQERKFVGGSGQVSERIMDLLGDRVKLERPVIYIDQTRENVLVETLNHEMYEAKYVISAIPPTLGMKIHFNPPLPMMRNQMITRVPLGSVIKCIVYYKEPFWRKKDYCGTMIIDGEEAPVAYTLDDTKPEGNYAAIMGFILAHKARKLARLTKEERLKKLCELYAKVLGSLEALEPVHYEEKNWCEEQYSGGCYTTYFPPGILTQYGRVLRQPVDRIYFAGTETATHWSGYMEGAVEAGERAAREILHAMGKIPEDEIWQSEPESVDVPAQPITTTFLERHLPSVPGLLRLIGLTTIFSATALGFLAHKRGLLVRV
Procedure: IC50 values for each compound were determined by competition binding. […] IC50 values were determined by nonlinear regression analysis using GraphPad Prism.

MAO-B microsomes [3] = target: T2, MAO-B microsomes; assay: LC-MS direct saturation binding to MAO-B microsomes
Human recombinant MAO-B = target: T3, Human recombinant MAO-B (Homo sapiens, UniProt P27338); assay: Saturation binding of radioligand to MAO-B microsomes
T3 construct: purchased Sigma M7441
T3 sequence (P27338 1-520): T2 sequence (P27338 1-520)
Procedure: (§1) The dissociation constant (Kd) was determined by saturation binding, in which the total and non-specific binding of the radioligand was measured at various concentrations. Human recombinant MAO-A, MAO-B, and control microsomes were acquired from Sigma (M7316, M7441, and M7566, respectively). All microsome preparations were at a concentration of 5 mg protein/mL. The reaction mixture (250 μL) contained protein target and ^18F-radioligand, serially diluted in PBS, pH 7.4; assays were performed in PBS (0.01% bovine serum albumin [BSA]) in 96-well polypropylene microplates. […] . Filters were assayed for radioactivity in a Wizard 2480 automatic gamma-counter (Perkin Elmer).

[4] = tested on: frozen human brain slices from AD donors (PHF tau-rich) and non-AD control donors; assay: [^18F]flortaucipir autoradiography, stringent vs mild wash conditions; type: binding
Procedure: Autoradiography was performed on frozen human brain slices from AD donors (N = 3, PHF tau-rich as determined by AT8 immunohistochemistry) and age-matched non-AD control donors (N = 6, devoid of tau NFTs and beta-amyloid neuritic plaques as determined by immunohistochemistry). Brains slices were obtained from the National Disease Research Interchange (Philadelphia, PA).

isolated human PHF = isolated human PHF (Homo sapiens, UniProt P10636); assay: Saturation binding of radioligand to isolated PHF
Chain of isolated human PHF (P10636 623-695 limits assumed): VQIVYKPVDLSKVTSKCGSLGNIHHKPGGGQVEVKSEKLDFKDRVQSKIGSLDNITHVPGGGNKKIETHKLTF
Procedure: Purified, soluble PHF was isolated from AD brain tissue using a protocol modified from the procedure described by Jicha et al.. Briefly, homogenized AD cortex underwent high pressure batch–gas expansion using a Parr Cell disruption bomb and centrifuged at […]. […] Bound PHF was eluted with two column volumes of 3M potassium thiocyanate. Isolated PHF was analyzed in a tau MC-1 ELISA and a tau AT8 ELISA, which recognizes tau phosphorylated at both Ser 202 and Thr 205 [3].
as §1

Human recombinant MAO-A = target: T4, Human recombinant MAO-A (Homo sapiens, UniProt P21397); assay: Saturation binding of radioligand to MAO-A microsomes
T4 construct: purchased Sigma M7316
T4 sequence (P21397 1-527): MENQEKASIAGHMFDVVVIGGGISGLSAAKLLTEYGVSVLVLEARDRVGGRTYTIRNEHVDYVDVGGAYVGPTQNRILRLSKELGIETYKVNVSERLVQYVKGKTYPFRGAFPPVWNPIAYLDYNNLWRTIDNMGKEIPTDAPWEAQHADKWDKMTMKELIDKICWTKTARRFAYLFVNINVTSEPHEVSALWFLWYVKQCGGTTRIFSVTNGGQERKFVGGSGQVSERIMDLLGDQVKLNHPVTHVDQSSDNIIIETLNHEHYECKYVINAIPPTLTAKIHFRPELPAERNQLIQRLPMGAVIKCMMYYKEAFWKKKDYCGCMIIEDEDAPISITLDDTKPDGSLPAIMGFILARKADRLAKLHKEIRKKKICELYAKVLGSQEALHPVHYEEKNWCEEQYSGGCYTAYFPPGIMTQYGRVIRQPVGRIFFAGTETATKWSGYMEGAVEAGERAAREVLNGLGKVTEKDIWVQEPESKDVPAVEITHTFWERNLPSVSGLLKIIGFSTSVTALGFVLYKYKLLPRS
Procedure: as §1

[5] = NSB defined as binding to control microsomes
[6] = NSB defined with 10 μM deprenyl

Cc1nccc2c1[nH]c1cc(OCC[18F])ccc12 [[^18F]fluoroethyl-harmol]
brain activity at 110 min (MAO-A; control rats, 110 min): 2.1 %ID/g
peak brain activity (MAO-A; control rats, i.v.): 2.3 %ID/g
peak brain activity (MAO-A; pargyline 50 mg/kg i.p. pre-treated rats): 2.4 %ID/g
brain activity after washout (MAO-A; pargyline 50 mg/kg i.p. pre-treated rats, by 20 min): 1.0 %ID/g

Fc1ccc(-c2ccc3c(c2)[nH]c2ccncc23)cn1 [flortaucipir]
IC50 [1]: 270 nM
IC50 (MAO-B microsomes [2]): 1300 nM
specific binding to MAO-B (LC-MS saturation) (MAO-B microsomes [3]; higher flortaucipir concentrations): no specific binding was observed

Cc1nccc2c1[nH]c1cc(OCCF)ccc12 [fluoroethyl-harmol]
IC50 [1]: 780 nM
IC50 (MAO-B microsomes [2]; read-out: IC50, displacement of safinamide, 30 nM safinamide, 10 μg MAO-B microsomes): > 10000 nM

CNc1ccc(-c2ccc3cc(OC[C@H](O)C[18F])ccc3n2)cn1 [[^18F]THK5351]
Bmax (Human recombinant MAO-B; [5]): 49 ± 6.3 pmol ligand/mg total protein
Bmax (Human recombinant MAO-B; NSB defined with 1 μM THK5351): 54 ± 3.4 pmol ligand/mg total protein
Bmax (Human recombinant MAO-B; [6]): 51 ± 5.5 pmol ligand/mg total protein

C[C@H](NCc1ccc(OCc2cccc(F)c2)cc1)C(N)=O [safinamide]
IC50 [1]: ≥ 10000 nM
Bmax (MAO-B microsomes [3]; LC-MS, NSB = control microsome): 446 pmol ligand/mg total protein

[18F]c1ccc(-c2ccc3c(c2)[nH]c2ccncc23)cn1 [[^18F]flortaucipir]
fraction of [^18F]flortaucipir bound to normal brain sections that was displaced ([1]; mild wash conditions, remainder non-specific and non-saturable): approximately 50%
saturability of autoradiography signal on AD tissue [4]: saturable
saturability of off-target binding, mild wash ([4]; mild wash, AD and control tissue, 1 μM flortaucipir): only partially saturable
[^18F]flortaucipir binding on tissue, mild wash ([4]; mild washing (PBS), frontal cortex and striatum): observed on both AD and control tissues
[^18F]flortaucipir binding on tissue, stringent wash ([4]; stringent washing (30% and 70% EtOH), frontal cortex and striatum): observed only on tau NFT-rich AD tissue, not on control tissue
effect of pargyline pre-treatment on brain uptake and clearance (MAO-A; rats, control vs pargyline 50 mg/kg): nearly identical brain uptake with rapid clearance in both the control and pargyline groups
specific binding to MAO-B (radioligand saturation) (Human recombinant MAO-B; MAO-B microsomes vs control microsomes or 10 μM deprenyl): no specific binding; also recorded: no significant binding

Fc1ccc(-c2ccc3c(c2)[nH]c2ccncc23)cn1 [[^18F]flortaucipir]
Kd (isolated human PHF): 0.57 nM
Kd (Human recombinant MAO-A): 2 nM

CNc1ccc(-c2ccc3cc(OC[C@H](O)CF)ccc3n2)cn1 [[^18F]THK5351]
Kd (Human recombinant MAO-B; [5]): 37 ± 1.8 nM
Kd (Human recombinant MAO-B; NSB defined with 1 μM THK5351): 40 ± 0.7 nM
Kd (Human recombinant MAO-B; [6]): 39 ± 1.1 nM
